Data published in patent publication US11497746B2, “Pharmaceutical combinations comprising a histone deacetylase inhibitor and a programmed death-ligand 1 (PD-L1) inhibitor and methods of use thereof” (Acetylon Pharmaceuticals, Inc., priority 2016, dated 2022).

Legend:
RPMI8226 cells = assay: anti-PD-L1 antibody-dependent cell-mediated cytotoxicity in RPMI8226 cells; type: cell-based; details: RPMI8226 cells with PBMCs (E/T=15/1), pomalidomide 0.1 μM 72 hours, then anti-PD-L1 antibody 0.5 μg/ml 3 hours, FCM (FIG. 5)
Description: After bone marrow aspiration, fresh bone marrow mononuclear cells (MNC) were obtained by ammonium chloride based-lyses of red cells followed by washing in phosphate-buffered saline (PBS). For ADCC assays, cells were immediately incubated with anti-PD-L1 antibody (BMS-936559, also referred to herein as “MDX-1105” 1 μg/mL) in the presence of Compound A or Compound B in complete medium in 96-well plate. The cells were incubated for 72 h at 37° C. in a 5% CO2 environment. The viability of primary MM cells in BM MNC was determined by near infrared (n-IR) viability dyes. The surviving CD138+ MM cells were enumerated in the presence of Flow-Count Fluorospheres (Beckman Coulter, CA, USA), to determine absolute numbers of viable MM cells. Phenotypic analyses of MNC were performed using a single 5-color combination of monoclonal antibodies containing BV421/PD-L1(CD274)-BV711 (BD Biosciences, San Jose, Calif., USA). PD-L1 on plasma cells was determined using a commercial assay (BD Biosciences, San Jose, Calif., USA). […]
Similarly, RPMI8226 cells were cultured with PBMCs (E/T=15/1) in the presence or absence of pomalidomide (Pom, 0.1 μM) for 72 hours. After subsequent cultivation with anti-PD-L1 antibody (0.5 μg/ml) for 3 hours, percent specific killing was assessed by FCM. […]

[1] = tested on: H929 multiple myeloma cells; assay: PD-L1 expression by flow cytometry in H929 cells; type: cell-based; details: Compound A 1 μM and 2 μM, 48 hours, flow cytometry (FIG. 1)
Description: After bone marrow aspiration, fresh bone marrow mononuclear cells (MNC) were obtained by ammonium chloride based-lyses of red cells followed by washing in phosphate-buffered saline (PBS). For ADCC assays, cells were immediately incubated with anti-PD-L1 antibody (BMS-936559, also referred to herein as “MDX-1105” 1 μg/mL) in the presence of Compound A or Compound B in complete medium in 96-well plate. The cells were incubated for 72 h at 37° C. in a 5% CO2 environment. The viability of primary MM cells in BM MNC was determined by near infrared (n-IR) viability dyes. The surviving CD138+ MM cells were enumerated in the presence of Flow-Count Fluorospheres (Beckman Coulter, CA, USA), to determine absolute numbers of viable MM cells. Phenotypic analyses of MNC were performed using a single 5-color combination of monoclonal antibodies containing BV421/PD-L1(CD274)-BV711 (BD Biosciences, San Jose, Calif., USA). PD-L1 on plasma cells was determined using a commercial assay (BD Biosciences, San Jose, Calif., USA). After incubation, cells were washed twice in PBS containing 2% BSA, and then re-suspended in PBS for analysis on a Fortessa cytometer (Becton Dickinson, Mountain View, Calif.). MM cell lines were also applied to this method in some experiments. […]

[2] = tested on: MM.1S, H929, KMS12-PE, OPM1 and U266 multiple myeloma cells; assay: PD-L1 expression in a panel of multiple myeloma cell lines; type: cell-based; details: 2 μM, 48 hours (FIG. 2)
Description: After bone marrow aspiration, fresh bone marrow mononuclear cells (MNC) were obtained by ammonium chloride based-lyses of red cells followed by washing in phosphate-buffered saline (PBS). For ADCC assays, cells were immediately incubated with anti-PD-L1 antibody (BMS-936559, also referred to herein as “MDX-1105” 1 μg/mL) in the presence of Compound A or Compound B in complete medium in 96-well plate. […] The viability of primary MM cells in BM MNC was determined by near infrared (n-IR) viability dyes. The surviving CD138+ MM cells were enumerated in the presence of Flow-Count Fluorospheres (Beckman Coulter, CA, USA), to determine absolute numbers of viable MM cells. Phenotypic analyses of MNC were performed using a single 5-color combination of monoclonal antibodies containing BV421/PD-L1(CD274)-BV711 (BD Biosciences, San Jose, Calif., USA). PD-L1 on plasma cells was determined using a commercial assay (BD Biosciences, San Jose, Calif., USA). After incubation, cells were washed twice in PBS containing 2% BSA, and then re-suspended in PBS for analysis on a Fortessa cytometer (Becton Dickinson, Mountain View, Calif.). MM cell lines were also applied to this method in some experiments.

[3] = tested on: Mononuclear cells from MM patients' bone marrow aspirates; assay: anti-PD-L1 antibody induced cytotoxicity, autologous setting, ex vivo; type: cell-based, human; details: anti-PD-L1 Ab 0.5 μg/ml, Compound B 0.5 μM, 72 h (FIG. 8 and FIG. 9)
Description: After bone marrow aspiration, fresh bone marrow mononuclear cells (MNC) were obtained by ammonium chloride based-lyses of red cells followed by washing in phosphate-buffered saline (PBS). […] The cells were incubated for 72 h at 37° C. in a 5% CO2 environment. The viability of primary MM cells in BM MNC was determined by near infrared (n-IR) viability dyes. The surviving CD138+ MM cells were enumerated in the presence of Flow-Count Fluorospheres (Beckman Coulter, CA, USA), to determine absolute numbers of viable MM cells. Phenotypic analyses of MNC were performed using a single 5-color combination of monoclonal antibodies containing BV421/PD-L1(CD274)-BV711 (BD Biosciences, San Jose, Calif., USA). PD-L1 on plasma cells was determined using a commercial assay (BD Biosciences, San Jose, Calif., USA). After incubation, cells were washed twice in PBS containing 2% BSA, and then re-suspended in PBS for analysis on a Fortessa cytometer (Becton Dickinson, Mountain View, Calif.). MM cell lines were also applied to this method in some experiments.
H929 cells were stained with CFSE and cultured with PBMCs in the presence or absence of pomalidomide (0.1 μM), Compound B (0.25, 0.5, 1 μM) for 72 h. The cells were then incubated with Ab (0.5 μg/ml PD-L1) for 3 h. Cytotoxicity was assessed by FCM (FIG. 7). […]

H929 cells = assay: anti-PD-L1 antibody-dependent cell-mediated cytotoxicity in H929 cells; type: cell-based; details: H929 cells with PBMCs, Compound B alone 0.25, 0.5, 1 μM, 72 h, then anti-PD-L1 antibody 0.5 μg/ml 3 h, FCM (FIG. 7)
Description: After bone marrow aspiration, fresh bone marrow mononuclear cells (MNC) were obtained by ammonium chloride based-lyses of red cells followed by washing in phosphate-buffered saline (PBS). For ADCC assays, cells were immediately incubated with anti-PD-L1 antibody (BMS-936559, also referred to herein as “MDX-1105” 1 μg/mL) in the presence of Compound A or Compound B in complete medium in 96-well plate. The cells were incubated for 72 h at 37° C. in a 5% CO2 environment. The viability of primary MM cells in BM MNC was determined by near infrared (n-IR) viability dyes. […] PD-L1 on plasma cells was determined using a commercial assay (BD Biosciences, San Jose, Calif., USA). […]
To assess the effect of Compound B in combination with pomalidomide on ADCC using anti-PD-L1 antibody-dependent cell-mediated cytotoxicity in H929 cells, H929 cells were stained with carboxyfluorescein succinimidyl ester (CFSE) and cultured with PBMCs in the presence or absence of pomalidomide (0.1 μM), Compound B (0.25, 0.5, 1 μM) for 72 hours. […] Cytotoxicity was assessed by FCM. […]
H929 cells were stained with CFSE and cultured with PBMCs in the presence or absence of pomalidomide (0.1 μM), Compound B (0.25, 0.5, 1 μM) for 72 h. […] Cytotoxicity was assessed by FCM (FIG. 7). […]

U266 cells [4] = assay: anti-PD-L1 antibody-dependent cell-mediated cytotoxicity in U266 cells; type: cell-based; details: Compound B 1 μM plus stromal cell supernatant 48 hours, then anti-PD-L1 antibody 1 μg/ml and PBMC (E/T=15/1 and 30/1) 5 hours, FCM (FIG. 4)
Description: Multiple myeloma cells were incubated with Calcein-AM (Invitrogen, 2 μg/ml/1 million cells) for 30 min at 37° C. After washing, the cells were used for target cells. Mononuclear cells were obtained from healthy volunteer peripheral blood by Ficoll-Paque density centrifugation and used for effector cells. […] Percent specific lysis was calculated as follows, % specific lysis=[experiment fluorescence−spontaneous fluorescence (no effector)]/[complete lysis (100% killing by detergent)−spontaneous fluorescence (no effector)]×100.
(§1) After bone marrow aspiration, fresh bone marrow mononuclear cells (MNC) were obtained by ammonium chloride based-lyses of red cells followed by washing in phosphate-buffered saline (PBS). For ADCC assays, cells were immediately incubated with anti-PD-L1 antibody (BMS-936559, also referred to herein as “MDX-1105” 1 μg/mL) in the presence of Compound A or Compound B in complete medium in 96-well plate. The cells were incubated for 72 h at 37° C. in a 5% CO2 environment. The viability of primary MM cells in BM MNC was determined by near infrared (n-IR) viability dyes. The surviving CD138+ MM cells were enumerated in the presence of Flow-Count Fluorospheres (Beckman Coulter, CA, USA), to determine absolute numbers of viable MM cells. […] PD-L1 on plasma cells was determined using a commercial assay (BD Biosciences, San Jose, Calif., USA). […]

U266 cells [5] = assay: PD-L1 expression in U266 cells cultured in stromal cell supernatant; type: cell-based; details: Compound B 1 μM, 48 hours, FCM (FIG. 3)
Description: Mononuclear cells separated by Ficoll-Hypaque density sedimentation from bone marrow aspirates were cultured in 15% FBS-RPMI1640 for 5-6 weeks to establish long-term bone marrow stromal cells. Culture supernatant from BMSCs was used for stimulation of MM cell lines.
as §1
To determine the effect stromal cell priming has on PD-L1 expression in U266 cells treated with Compound B, U266 cells were cultured in stromal cell supernatant (sup) in the presence or absence of Compound B (1 μM) for 48 hours. PD-L1 expression was assessed by FCM. […]

`Nc1cccc2c1C(=O)N(C1CCC(=O)NC1=O)C2=O` (stereo not shown) [Pomalidomide, pomalidomide] was tested, and the “percent specific killing (cytotoxicity)” value (RPMI8226 cells) was “enhanced”.
With `O=C(CCCCCCNC(=O)c1cnc(N(c2ccccc2)c2ccccc2)nc1)NO` [Compound A, 2-(diphenylamino)-N-(7-(hydroxyamino)-7-oxoheptyl)pyrimidine-5-carboxamide] the PD-L1 expression [1] was “increased”.
With `O=C(CCCCCCNC(=O)c1cnc(N(c2ccccc2)c2ccccc2Cl)nc1)NO` [Compound B, 2-((2-chlorophenyl)(phenyl)amino)-N-(7-(hydroxyamino)-7-oxoheptyl)pyrimidine-5-carboxamide] the PD-L1 expression [2] was “enhanced”, the anti-PD-L1 antibody induced-cytotoxicity [3] was “enhanced” and the “anti-PD-L1 Ab-induced cytotoxicity” value (H929 cells) was “enhanced”. The percent specific lysis (U266 cells [4]) was “greatest” and the PD-L1 expression (U266 cells [5]) was “highest”.
